In article PMC7076440, “New Preclinical Development of a c-Met Inhibitor and Its Combined Anti-Tumor Effect in c-Met-Amplified NSCLC” (Pharmaceutics, 2020):
In brackets after ≈: the same amount, converted by molar mass.

Tests used:
[1] = Equilibrium solubility at different pHs and excipients by HPLC; type: physicochemical; details: thermodynamic from solid
Experimental: Solutions at pH values of 1 to 12 were prepared using HCl and NaOH. At first, 10^−1 N, 10^−2 N, 10^−3 N, 10^−4 N, 10^−5 N, and 10^−6 N of HCl and NaOH solutions were prepared and their pH values were measured with a pH meter (Metrohm 827 pH lab, Zurich, Switzerland). One milliliter of the 10^−4 N, 10^−5 N, and 10^−6 N of HCl and NaOH solutions was withdrawn and diluted in a 100 mL flask for more coordination. In each prepared solution (n = 3), excess ABN401 was dissolved and mixed for 24 h. All samples were centrifuged for 1 min at 12,000 rpm. The pH solubility of ABN401 was analyzed by HPLC and the pKa was determined by plotting a graph of log(solubility) against pH.
An HPLC system (Shimadzu LC-20, Shimadzu, Kyoto, Japan) was used to analyze the solubility, dissolution profile, and degradation products as well as to determine the storage stability of ABN401. The wavelength of the UV detector was set at 282 nm. For quantification analysis, the Agilent Eclipse Plus C18 (5 μm, 4.6 × 150 mm) (Agilent technologies, Santa Clara, CA, USA) was used and maintained at 30 °C. The mobile phase was a mixture of acetonitrile and 50 mM acetate buffer at pH 5.0 at a volume ratio of 50 to 50 (v/v %). The flow rate of the mobile phase was 0.5 mL/min and the injection volume was 10 μL. A Kromasil C8 (5 μm, 4.6 × 250 mm) column was used for qualification analysis to observe the impurity profile during the storage stability test. The following gradient was applied: 0–20 min, 80% acetonitrile and 20% acetate buffer to 20% acetonitrile and 80% acetate buffer, maintained up to 25 min; 25– 28 min, back to 80% acetonitrile and 20% acetate buffer, maintained up to 35 min. The flow rate of the mobile phase was 1 mL/min and the injection volume was 10 μL.
The solubility of ABN401 in two different acidic buffers (i.e., acetate and citrate) were analyzed at three different pH values: 4.0, 4.5, and 5.0 (Table 2). […] Different concentrations of PEG400, cremophor EL, and polysorbate 80 were also evaluated as co-solvents to ABN401 in 0.1 M acetate buffer at pH 4.0 to investigate the solubility enhancement. […] Therefore, 20% PEG400 in 0.1 M sodium acetate was selected as an oral gavage formulation and intravenous solution for in vivo studies. A short storage stability test was performed for 8 days in a cold chamber to determine the concentration recovery yields at low and high concentrations, which were 0.03 mg/mL and 133 mg/mL, respectively. […] As a result, pH 4.0 yielded the highest percentage recovery in both low and high concentrations (Table 3).

Dynamic vapor sorption = type: physicochemical; details: 25 °C, 5% to 95% RH
Experimental: Moisture sorption analyses were utilized using a VTI-SA vapor sorption analyzer (TA Instruments, New Castle, DE, USA). API was placed into the sample holder. The percentage of relative humidity (% RH) in the chamber was increased from 5% to 95% RH for moisture adsorption, followed by a decrease in % RH from 95% to 5% for moisture desorption. A drying phase (i.e., 40 °C, less than 0.01% weight loss in 2 min) was set to run before to the analysis. The temperature was set at a 25 °C throughout the analysis. The program criteria were set to 0.0001% weight change or 2 min stability of weight gained or lost before the program could proceed to the next set parameter.

[2] = parameters: method as in doi:10.1016/j.dmpk.2016.10.205; details: rats; cited from earlier work

With `CN1CCN(Cc2ccc(-c3cnc(N4CCOC(Cn5nnc6ncc(-c7cnn(C)c7)nc65)C4)nc3)cc2)CC1` (stereo not drawn) [ABN401] the solubility at 24 h ([1]; 20% PEG 400 in 0.1 M acetate buffer, aqueous with cosolvent or surfactant or cyclodextrin, PEG 400 (20 %), co-solvent in 0.1 M acetate buffer pH 4.0) was 8010 µg/mL (≈ 14.1 mM), the solubility at 24 h ([1]; 40% PEG 400 in 0.1 M acetate buffer, aqueous with cosolvent or surfactant or cyclodextrin, PEG 400 (40 %), co-solvent in 0.1 M acetate buffer pH 4.0) was 8800 µg/mL (≈ 15.5 mM) and the solubility at 24 h ([1]; 60% PEG 400 in 0.1 M acetate buffer, aqueous with cosolvent or surfactant or cyclodextrin, PEG 400 (60 %), co-solvent in 0.1 M acetate buffer pH 4.0) was 9480 µg/mL (≈ 16.7 mM). The solubility at 24 h ([1]; 80% PEG 400 in 0.1 M acetate buffer, aqueous with cosolvent or surfactant or cyclodextrin, PEG 400 (80 %), co-solvent in 0.1 M acetate buffer pH 4.0) was 12600 µg/mL (≈ 22.1 mM), the solubility at 24 h ([1]; aqueous buffer, 0.1 M acetate buffer (pH 4.0)) was 7140 µg/mL (≈ 12.6 mM) and the solubility at 24 h ([1]; aqueous buffer, 0.1 M acetate buffer (pH 4.5)) was 2290 µg/mL (≈ 4.04 mM). The solubility at 24 h ([1]; aqueous buffer, 0.1 M acetate buffer (pH 5.0)) was 560 µg/mL (≈ 0.988 mM), the solubility at 24 h ([1]; aqueous buffer, 0.1 M citrate buffer (pH 4.0)) was 60 µg/mL (≈ 0.106 mM) and the solubility at 24 h ([1]; aqueous buffer, 0.1 M citrate buffer (pH 4.5)) was 30 µg/mL (≈ 0.0529 mM). It also gave a solubility at 24 h ([1]; aqueous buffer, 0.1 M citrate buffer (pH 5.0)) of 20 µg/mL (≈ 0.0353 mM), a solubility at 24 h ([1]; aqueous buffer, 1× PBS (pH 7.4)) of 10 µg/mL (≈ 0.0176 mM) and a solubility at 24 h ([1]; hydrochloric acid solution, aqueous buffer, Hydrochloric (pH 2.5)) of 26000 µg/mL (≈ 45.8 mM). The solubility at 24 h ([1]; hydrochloric acid solution, aqueous buffer, Hydrochloric (pH 5.0)) was 3920 µg/mL (≈ 6.92 mM), the solubility at 24 h ([1]; organic solvent or mixture, Cremophor EL (100 %)) was 14100 µg/mL (≈ 24.9 mM) and the solubility at 24 h ([1]; organic solvent or mixture, PEG 400 (100 %)) was 15500 µg/mL (≈ 27.3 mM). For the same compound, the solubility at 24 h ([1]; organic solvent or mixture, Polysorbate 80 (100 %)) was 8460 µg/mL (≈ 14.9 mM), the moisture adsorption (Dynamic vapor sorption) was “relatively less adsorptive to moisture” and the absolute bioavailability [2] was 45%.
